This note sets out measurements from patent publication US7183252B2, “Indole peptidomimetics as thrombin receptor antagonists” (Ortho-McNeil Pharmaceutical, Inc., priority 1999, dated 2007).

In one assay the test system is gel-filtered platelets. Put plainly: In vitro inhibition of thrombin-induced gel-filtered platelet aggregation. It is filed as cell-based. The following applies: human gel-filtered platelets, agonist thrombin 50 μL of 1 unit/mL, read-out: Thrmb IC50 (Thrombin-induced aggregation of gel-filtered platelets). The method, then: In Vitro Inhibition of Thrombin-Induced Gel-Filtered Platelet Aggregation Assay
The percentage of platelet aggregation is calculated as an increase in light transmission of compound-treated platelet concentrate vs. control-treated platelet concentrate. Human blood is obtained from drug free, normal donors in tubes containing 0.13M sodium citrate. Platelet rich plasma (PRP) is collected by centrifugation of whole blood at 200×g for 10 min at 25° C. The PRP (5 mL) is gel filtered through Sepharose 2B (bed volume 50 mL), and the platelet count is adjusted to 2×10^7 platelets per sample. The following constituents are added to a siliconized cuvette: concentrated platelet filtrate and Tyrode's buffer (0.14M NaCl, 0.0027M KCl, 0.012M NaHCO3, 0.76 mM Na2HPO4, 0.0055M glucose, 2 mg/mL BSA and 5.0 mM HEPES @ pH 7.4) in an amount equal to 350 μL 50 μL of 20 mM calcium and 50 μL of the test compound. Aggregation is monitored in a BIODATA aggregometer for the 3 min following the addition of agonist (thrombin 50 μL of 1 unit/mL).
(§1) Table 7 contains IC50 values (μM) of the compounds in a thrombin receptor binding assay, and IC50 values (μM) against platelet aggregation stimulated by thrombin.

Assay [1] has as its target T1, thrombin receptor (PAR-1) (Homo sapiens, UniProt P25116).
T1 construct: CHRF membranes (Jones, Biochim. Biophys. Acta 1992, 1136, 272) are thawed from −70° C; endogenous in cells; host or cells: CHRF cell membranes
T1 sequence (P25116 22-425): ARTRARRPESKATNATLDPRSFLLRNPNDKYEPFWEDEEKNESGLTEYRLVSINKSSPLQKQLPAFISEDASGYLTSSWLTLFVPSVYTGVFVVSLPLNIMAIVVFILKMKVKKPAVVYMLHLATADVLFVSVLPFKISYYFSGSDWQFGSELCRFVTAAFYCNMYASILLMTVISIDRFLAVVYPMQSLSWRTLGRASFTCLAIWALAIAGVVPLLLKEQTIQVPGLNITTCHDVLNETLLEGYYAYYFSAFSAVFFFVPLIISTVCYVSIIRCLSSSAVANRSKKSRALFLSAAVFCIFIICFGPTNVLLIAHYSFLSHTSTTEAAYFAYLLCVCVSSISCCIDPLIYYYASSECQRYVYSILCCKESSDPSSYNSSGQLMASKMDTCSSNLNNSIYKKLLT
Briefly: In vitro thrombin receptor binding assay (CHRF membranes). The following applies: tritiated 721-40 radioligand, read-out: Bndg IC50 (Thrombin receptor binding). The procedure: In Vitro Thrombin Receptor Binding Assay
CHRF membranes (Jones, Biochim. Biophys. Acta 1992, 1136, 272) are thawed from −70° C., centrifuged at maximum speed for 5 min, washed twice with binding buffer (50 mM HEPES containing 5 mM MgCl2 and 0.1% BSA), and re-suspended in binding buffer (25 μg/[…]). 100 μL of membranes are added to the 24-Wallac plates and delivered to the Tomtech apparatus. In a typical experiment, 6 μL of samples (from a 125 μg/mL intermediary plate, 20% DMSO) and 44 μL buffer are delivered to the plates (final conc. of compounds is 3.7 μg/mL, 0.6% DMSO). Similarly, 6 μL 20% DMSO and 44 μL buffer are delivered to both column 1 (NSB) and column 12 (TB). 10 μL Ser-pFPhe-Har-Leu-Har-Lys-Tyr-NH2 (721–40; 500 μM in deionized water) is added to column 1. 50 μL tritiated 721–40 (specific activity 46 Ci/mmol) is added to all the wells. The plates are mixed well for 20 seconds, incubated for 30 min,and then harvested with 10 mM HEPES/138 mM NaCl using the Skatron harvester. The filters (GF/C Brandel FPXLR 296) are presoaked 3 h in 0.5% polyethylenimine in HEPES/0.1M N-acetylglucosamine) are set in saran wrap and dried for 3 min in the microwave, and placed in sample bags (Wallac 1450-432). 4.5 mL scintillation fluid (Wallac, Betaplate Scint 1205-440) is added. The bags are sealed, placed in filter cassettes (Wallac 1450-104), and analyzed on the microbeta counter.
as §1

Where two headings read alike, the source gives them in different places.

`COc1ccc(C[C@H](NC(=O)Nc2ccc3c(CN4CCCC4)cn(Cc4ccc(F)cc4)c3c2)C(=O)N[C@@H](CCCNC(=N)N)C(=O)NCc2ccccc2)cc1` [Compound 1]: the IC50 with gel-filtered platelets (Platelet) was found to be 0.83 µM; in assay [1], 0.6 µM. Regarding `COc1ccc(C[C@H](NC(=O)Nc2ccc3c(CN4CCCC4)cn(Cc4ccc(C)cc4)c3c2)C(=O)N[C@@H](CCCN=C(N)N)C(=O)NCc2ccccc2)cc1` [Compound 2], the figures for the IC50 (with gel-filtered platelets (Platelet); in assay [1]) were 7.8 µM and 33.6 µM, respectively.

`COc1ccc(C[C@H](NC(=O)Nc2ccc3c(CNC4CCCC4)cn(Cc4ccc(F)cc4)c3c2)C(=O)N[C@@H](CCCNC(=N)N)C(=O)NCc2ccccc2)cc1` [Compound 3]: the values for the IC50 (in the assay with gel-filtered platelets (Platelet); in assay [1]) were 21.4 µM and 10.7 µM, respectively. For `COc1ccc(C[C@H](NC(=O)Nc2ccc3c(CN4CCCC4)cn(Cc4ccc(F)cc4)c3c2)C(=O)N[C@@H](CCCNC(=N)N)C(=O)NCCCc2ccccc2)cc1` [Compound 4], the IC50 with gel-filtered platelets (Platelet) worked out at 14.7 µM; in assay [1] it was 1.3 µM. For `CCN(CC)Cc1cn(Cc2ccc(F)cc2)c2cc(NC(=O)N[C@@H](Cc3ccc(OC)cc3)C(=O)N[C@@H](CCCNC(=N)N)C(=O)NCCCc3ccccc3)ccc12` [Compound 5], in that order: 2.9 µM and 1.8 µM. On the same counts, the results for `COc1ccc(C[C@H](NC(=O)Nc2ccc3c(CN4CCCC4)cn(Cc4cccc(F)c4)c3c2)C(=O)N[C@@H](CCCNC(=N)N)C(=O)NCc2ccccc2)cc1` [Compound 6] are 3.5 µM and 6.6 µM. For `COc1ccc(C[C@H](NC(=O)Nc2ccc3c(CN4CCCC4)cn(Cc4ccccc4F)c3c2)C(=O)N[C@@H](CCCNC(=N)N)C(=O)NCc2ccccc2)cc1` [Compound 7], in that order: 1.31 µM and 3.6 µM.

As for `COc1ccc(C[C@H](NC(=O)Nc2ccc3c(CN4CCCCC4)cn(Cc4ccc(F)cc4)c3c2)C(=O)N[C@@H](CCCNC(=N)N)C(=O)NCC2CCCCC2)cc1` [Compound 8], the IC50 with gel-filtered platelets (Platelet) came out at 8 µM; in assay [1], 2.3 µM. For the compound `COc1ccc(C[C@H](NC(=O)Nc2ccc3c(CN4CCCC4)cn(Cc4cccc(C)c4)c3c2)C(=O)N[C@@H](CCCNC(=N)N)C(=O)NCC2CCCCC2)cc1` [Compound 9], the results for the half-inhibitory concentration (IC50) (in the assay with gel-filtered platelets (Platelet); in assay [1]) were 2.5 µM and 10.4 µM, respectively.

Consider `COC(=O)c1ccc(Cn2cc(CN3CCCCC3)c3ccc(NC(=O)N[C@@H](Cc4ccc(OC)cc4)C(=O)N[C@@H](CCCN=C(N)N)C(=O)NCC4CCCCC4)cc32)cc1` [Compound 10], for which the concentration for half-maximal inhibition (IC50) in the assay with gel-filtered platelets (Platelet) was > 10 µM; in assay [1], 4.8 µM. Turning to `COc1ccc(C[C@H](NC(=O)Nc2ccc3c(CN4CCCC4)cn(Cc4ccc(OC(F)(F)F)cc4)c3c2)C(=O)N[C@@H](CCCNC(=N)N)C(=O)NCC2CCCCC2)cc1` [Compound 11], the IC50 in the assay on gel-filtered platelets amounted to 19.9 µM; in assay [1], 2.5 µM.

With `COc1ccc(C[C@H](NC(=O)Nc2ccc3c(CN4CCCC4)cn(Cc4ccc(S(C)(=O)=O)cc4)c3c2)C(=O)N[C@@H](CCCNC(=N)N)C(=O)NCc2ccccc2)cc1` [Compound 12], the IC50 amounted to 43.2 µM with gel-filtered platelets (Platelet) and 15.9 µM in assay [1].

For `COc1ccc(C[C@H](NC(=O)Nc2ccc3c(CN4CCCC4)cn(Cc4ccc(C#N)cc4)c3c2)C(=O)N[C@@H](CCCNC(=N)N)C(=O)NCc2ccccc2)cc1` [Compound 13], the values for the half-maximal inhibitory concentration (IC50) (in the assay with gel-filtered platelets (Platelet); in assay [1]) were 16.2 µM and 4.5 µM, respectively. On the same counts, the results for `COc1ccc(C[C@H](NC(=O)Nc2ccc3c(CN4CCCC4)cn(Cc4c(Cl)cccc4Cl)c3c2)C(=O)N[C@@H](CCCNC(=N)N)C(=O)NCc2ccccc2)cc1` [Compound 14] are 0.49 µM and 1.4 µM. As to `COc1ccc(C[C@H](NC(=O)Nc2ccc3c(CN4CCCC4)cn(Cc4ccc5ccccc5c4)c3c2)C(=O)N[C@@H](CCCNC(=N)N)C(=O)NCc2ccccc2)cc1` [Compound 15], the IC50 was 11.8 µM with gel-filtered platelets (Platelet) and 4.3 µM in assay [1]. For `COc1ccc(C[C@H](NC(=O)Nc2ccc3c(CN4CCCC4)cn(Cc4cccc(OC)c4)c3c2)C(=O)N[C@@H](CCCNC(=N)N)C(=O)NCc2ccccc2)cc1` [Compound 16], the IC50 in the assay on gel-filtered platelets (Platelet) worked out at 25.8 µM; in assay [1], 11.5 µM. As for `COc1ccc(C[C@H](NC(=O)Nc2ccc3c(CN4CCCC4)cn(Cc4ccccc4C)c3c2)C(=O)N[C@@H](CCCNC(=N)N)C(=O)NCc2ccccc2)cc1` [Compound 17], the 50% inhibitory concentration (IC50) in the assay on gel-filtered platelets (Platelet) is 0.42 µM; in assay [1] it was 0.97 µM.

On to `COc1ccc(C[C@H](NC(=O)Nc2ccc3c(CN4CCCC4)cn(Cc4ccc(C(F)(F)F)cc4)c3c2)C(=O)N[C@@H](CCCNC(=N)N)C(=O)NCc2ccccc2)cc1` [Compound 18], for which the results for the concentration for half-maximal inhibition (IC50) (in the assay on gel-filtered platelets (Platelet); in assay [1]) were 14 µM and 3.7 µM, respectively. For `COc1ccc(C[C@H](NC(=O)Nc2ccc3c(CN4CCCC4)cn(Cc4ccc(Cl)cc4)c3c2)C(=O)N[C@@H](CCCNC(=N)N)C(=O)NCc2ccccc2)cc1` [Compound 19], in that order: 3.2 µM and 1.6 µM. On the same counts, the results for `COc1ccc(C[C@H](NC(=O)Nc2ccc3c(CN4CCCC4)cn(Cc4ccc(OC)cc4)c3c2)C(=O)N[C@@H](CCCNC(=N)N)C(=O)NCc2ccccc2)cc1` [Compound 20] are 26.6 µM and 17.1 µM. For `COc1ccc(C[C@H](NC(=O)Nc2ccc3c(CN4CCCC4)cn(Cc4ccc(F)c(F)c4)c3c2)C(=O)N[C@@H](CCCNC(=N)N)C(=O)NCc2ccccc2)cc1` [Compound 21], in that order: 3.2 µM and 1.1 µM. Consider `COc1ccc(C[C@H](NC(=O)Nc2ccc3c(CN4CCCC4)cn(Cc4ccccc4)c3c2)C(=O)N[C@@H](CCCNC(=N)N)C(=O)NCc2ccccc2)cc1` [Compound 22], for which the IC50 in the assay with gel-filtered platelets (Platelet) came out at 3 µM; in assay [1], 4 µM.

On to `COc1ccc(C[C@H](NC(=O)Nc2ccc3c(CN4CCCC4)cn(Cc4ccc(I)cc4)c3c2)C(=O)N[C@@H](CCCNC(=N)N)C(=O)NCc2ccccc2)cc1` [Compound 23], for which the IC50 in the assay with gel-filtered platelets (Platelet) stood at 8.6 µM; in assay [1], 3.1 µM.

Take `N=C(N)NCCC[C@H](NC(=O)[C@H](Cc1ccncc1)NC(=O)Nc1ccc2c(CN3CCCC3)cn(Cc3ccc(F)cc3)c2c1)C(=O)NCc1ccccc1` [Compound 24]: the figures for the IC50 (in the assay with gel-filtered platelets (Platelet); in assay [1]) were 34.8 µM and 4.8 µM, respectively. Take `N=C(N)NCCC[C@H](NC(=O)[C@H](CC1CCCCC1)NC(=O)Nc1ccc2c(CN3CCCC3)cn(Cc3ccc(F)cc3)c2c1)C(=O)NCc1ccccc1` [Compound 25]: the IC50 in the assay with gel-filtered platelets worked out at 37.1 µM. With `N=C(N)NCCC[C@H](NC(=O)[C@H](Cc1ccc(F)cc1)NC(=O)Nc1ccc2c(CN3CCCC3)cn(Cc3ccc(F)cc3)c2c1)C(=O)NCc1ccccc1` [Compound 26], the concentration for half-maximal inhibition (IC50) with gel-filtered platelets (Platelet) was 0.55 µM; in assay [1], 4.3 µM.

Turning to `NC(N)=NCCC[C@H](NC(=O)[C@H](CCc1ccccc1)NC(=O)Nc1ccc2c(CN3CCCC3)cn(Cc3ccc(F)cc3)c2c1)C(=O)NCc1ccccc1` [Compound 27], the concentration for half-maximal inhibition (IC50) worked out at 27.3 µM in the assay on gel-filtered platelets (Platelet) and 14.6 µM in assay [1]. Take `COC(=O)C(NC(=O)C(CCN)NC(=O)C(Cc1ccc(F)c(F)c1)NC(=O)Nc1ccc2c(CN3CCCC3)cn(Cc3c(Cl)cccc3Cl)c2c1)c1ccccc1` (stereo not shown) [Compound 160]: in the assay with gel-filtered platelets, the IC50 was found to be 0.6 µM. On the same count and under the same terms, the figure for `NCCC(NC(=O)C(Cc1ccc(F)c(F)c1)NC(=O)Nc1ccc2c(CN3CCCC3)cn(Cc3c(Cl)cccc3Cl)c2c1)C(=O)NC(CO)c1ccccc1` (stereo not shown) [Compound 161] is 0.52 µM.

By IC50 is commonly meant the concentration that gives 50% inhibition.
